Experimental data reported in PubChem BioAssay AID2060617 (Molecular Pharmacology Branch, DTP, NCI, 2025).
Several values for one entry are separate records, joined by “and”; a condition that tells them apart may be missing. Equal values may be shown once.

Tested on: 485368-065-R4-J2-PDC spheroids with HUVEC/MSC, viability
Test: Anticancer human tumor 485368-065-R4-J2-PDC patient-derived pancreatic carcinoma cell line growth inhibition [CLK]
Conditions: for viability, T/C: stronger effect = lower value
In short: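 Patient-derived tumor cells grown as complex spheroids with HUVEC endothelial cells and mesenchymal stem cells, treated with drug combinations. Concentrations descend in half-log steps from near clinical Cmax, or from 10 microM if Cmax unknown.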

[1] = curve of first compound, second compound 0.0316 µM
[2] = curve of first compound, second compound 0.1 µM
[3] = curve of first compound, second compound 0.316 µM
[4] = curve of first compound, second compound 1 µM
[5] = curve of first compound, second compound 3.16 µM
[6] = curve of first compound, second compound 10 µM
[7] = second compound 0.0316 µM, first compound 0.0316 µM
[8] = second compound 0.0316 µM, first compound 0.1 µM
[9] = second compound 0.0316 µM, first compound 0.316 µM
[10] = second compound 0.0316 µM, first compound 1 µM
[11] = second compound 0.0316 µM, first compound 3.16 µM
[12] = second compound 0.0316 µM, first compound 10 µM
[13] = second compound 0.1 µM, first compound 0.0316 µM
[14] = second compound 0.1 µM, first compound 0.1 µM
[15] = second compound 0.1 µM, first compound 0.316 µM
[16] = second compound 0.1 µM, first compound 1 µM
[17] = second compound 0.1 µM, first compound 3.16 µM
[18] = second compound 0.1 µM, first compound 10 µM
[19] = second compound 0.316 µM, first compound 0.0316 µM
[20] = second compound 0.316 µM, first compound 0.1 µM
[21] = second compound 0.316 µM, first compound 0.316 µM
[22] = second compound 0.316 µM, first compound 1 µM
[23] = second compound 0.316 µM, first compound 3.16 µM
[24] = second compound 0.316 µM, first compound 10 µM
[25] = second compound 1 µM, first compound 0.0316 µM
[26] = second compound 1 µM, first compound 0.1 µM
[27] = second compound 1 µM, first compound 0.316 µM
[28] = second compound 1 µM, first compound 1 µM
[29] = second compound 1 µM, first compound 3.16 µM
[30] = second compound 1 µM, first compound 10 µM
[31] = second compound 3.16 µM, first compound 0.0316 µM
[32] = second compound 3.16 µM, first compound 0.1 µM
[33] = second compound 3.16 µM, first compound 0.316 µM
[34] = second compound 3.16 µM, first compound 1 µM
[35] = second compound 3.16 µM, first compound 3.16 µM
[36] = second compound 3.16 µM, first compound 10 µM
[37] = second compound 10 µM, first compound 0.0316 µM
[38] = second compound 10 µM, first compound 0.1 µM
[39] = second compound 10 µM, first compound 0.316 µM
[40] = second compound 10 µM, first compound 1 µM
[41] = second compound 10 µM, first compound 3.16 µM
[42] = second compound 10 µM, first compound 10 µM
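Note: spheroids exposed to compounds for seven days.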
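Throughout, for viability, T/C: 100% = DMSO vehicle control wells.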

## Nc1ccn(C2OC(CO)C(O)C2(F)F)c(=O)n1 (stereo not drawn) + CNC(=O)c1ccc(Nc2nc(OC3CCCC3)c3c(-c4ccc5nc(C)oc5c4)c[nH]c3n2)c(OC)c1
[1]
  IC50: 73.2 nM
[2]
  IC50: 65.3 nM
[3]
  IC50: 49.3 nM
[4]
  IC50: 43.2 nM
[5]
  IC50: 34.3 nM
[6]
  IC50: < 31.6 nM
[7]
  viability, T/C: 66.8%
[8]
  viability, T/C: 45%
[9]
  viability, T/C: 32.3%
[10]
  viability, T/C: 35.2%
[11]
  viability, T/C: 33.5%
[12]
  viability, T/C: 30.5%
[13]
  viability, T/C: 62.8%
[14]
  viability, T/C: 43.4%
[15]
  viability, T/C: 31.1%
[16]
  viability, T/C: 33.4%
[17]
  viability, T/C: 32.4%
[18]
  viability, T/C: 26.6%
[19]
  viability, T/C: 59.8%
[20]
  viability, T/C: 34%
[21]
  viability, T/C: 27.5%
[22]
  viability, T/C: 24.8%
[23]
  viability, T/C: 25.1%
[24]
  viability, T/C: 21.8%
[25]
  viability, T/C: 58%
[26]
  viability, T/C: 28.2%
[27]
  viability, T/C: 20.7%
[28]
  viability, T/C: 17.2%
[29]
  viability, T/C: 16.1%
[30]
  viability, T/C: 13.9%
[31]
  viability, T/C: 51.8%
[32]
  viability, T/C: 28.1%
[33]
  viability, T/C: 18.7%
[34]
  viability, T/C: 15.4%
[35]
  viability, T/C: 14.5%
[36]
  viability, T/C: 13.2%
[37]
  viability, T/C: 50%
[38]
  viability, T/C: 24.5%
[39]
  viability, T/C: 18.6%
[40]
  viability, T/C: 16%
[41]
  viability, T/C: 13.3%
[42]
  viability, T/C: 11.2%

## O=c1[nH]cc(F)c(=O)[nH]1 + CNC(=O)c1ccc(Nc2nc(OC3CCCC3)c3c(-c4ccc5nc(C)oc5c4)c[nH]c3n2)c(OC)c1
[1]
  IC50: > 10000 nM
[2]
  IC50: > 10000 nM
[3]
  IC50: > 10000 nM
[4]
  IC50: > 10000 nM
[5]
  IC50: > 10000 nM
[6]
  IC50: > 10000 nM
[7]
  viability, T/C: 82%
[8]
  viability, T/C: 98.8%
[9]
  viability, T/C: 80.4%
[10]
  viability, T/C: 97.6%
[11]
  viability, T/C: 95.1%
[12]
  viability, T/C: 81%
[13]
  viability, T/C: 95.5%
[14]
  viability, T/C: 99.2%
[15]
  viability, T/C: 97%
[16]
  viability, T/C: 103%
[17]
  viability, T/C: 93.6%
[18]
  viability, T/C: 82.3%
[19]
  viability, T/C: 81.4%
[20]
  viability, T/C: 80.7%
[21]
  viability, T/C: 81.3%
[22]
  viability, T/C: 82%
[23]
  viability, T/C: 87.3%
[24]
  viability, T/C: 74.2%
[25]
  viability, T/C: 79.2%
[26]
  viability, T/C: 83.7%
[27]
  viability, T/C: 75%
[28]
  viability, T/C: 75.9%
[29]
  viability, T/C: 71%
[30]
  viability, T/C: 62.8%
[31]
  viability, T/C: 69.4%
[32]
  viability, T/C: 70.4%
[33]
  viability, T/C: 69.5%
[34]
  viability, T/C: 73.3%
[35]
  viability, T/C: 68.1%
[36]
  viability, T/C: 64.1%
[37]
  viability, T/C: 63.3%
[38]
  viability, T/C: 69.6%
[39]
  viability, T/C: 72.1%
[40]
  viability, T/C: 64.1%
[41]
  viability, T/C: 67%
[42]
  viability, T/C: 51.8%

## CCN1CCN(Cc2ccc(Nc3ncc(F)c(-c4cc(F)c5nc(C)n(C(C)C)c5c4)n3)nc2)CC1 + CN1CCN(c2cc(C(=O)Nc3cc4cc(-c5cnn(C)c5)ccc4cn3)ccn2)CC1
[1]
  IC50: > 1000 nM
[2]
  IC50: > 1000 nM
[3]
  IC50: > 1000 nM
[4]
  IC50: < 3.16 nM
[5]
  IC50: < 3.16 nM
[6]
  IC50: < 3.16 nM
Second compound 0.0316 µM, first compound 0.00316 µM
  viability, T/C: 94.5%
Second compound 0.0316 µM, first compound 0.01 µM
  viability, T/C: 116%
[7]
  viability, T/C: 110%
[8]
  viability, T/C: 138%
[9]
  viability, T/C: 132%
[10]
  viability, T/C: 120%
Second compound 0.1 µM, first compound 0.00316 µM
  viability, T/C: 103%
Second compound 0.1 µM, first compound 0.01 µM
  viability, T/C: 112%
[13]
  viability, T/C: 113%
[14]
  viability, T/C: 113%
[15]
  viability, T/C: 126%
[16]
  viability, T/C: 109%
Second compound 0.316 µM, first compound 0.00316 µM
  viability, T/C: 79%
Second compound 0.316 µM, first compound 0.01 µM
  viability, T/C: 76.1%
[19]
  viability, T/C: 79.3%
[20]
  viability, T/C: 78.9%
[21]
  viability, T/C: 66.8%
[22]
  viability, T/C: 60.7%
Second compound 1 µM, first compound 0.00316 µM
  viability, T/C: 0.99%
Second compound 1 µM, first compound 0.01 µM
  viability, T/C: 0.79%
[25]
  viability, T/C: 1.5%
[26]
  viability, T/C: 1.72%
[27]
  viability, T/C: 3.79%
[28]
  viability, T/C: 6.61%
Second compound 3.16 µM, first compound 0.00316 µM
  viability, T/C: 1.45%
Second compound 3.16 µM, first compound 0.01 µM
  viability, T/C: 1.98%
[31]
  viability, T/C: 1.44%
[32]
  viability, T/C: 3.25%
[33]
  viability, T/C: 3.87%
[34]
  viability, T/C: 6.47%
Second compound 10 µM, first compound 0.00316 µM
  viability, T/C: 1.45%
Second compound 10 µM, first compound 0.01 µM
  viability, T/C: 1.41%
[37]
  viability, T/C: 2.59%
[38]
  viability, T/C: 1.89%
[39]
  viability, T/C: 2.62%
[40]
  viability, T/C: 3.7%

## COc1ccc([C@@H](O)c2cc(-c3ncnc4cc(N5CCOCC5)ccc34)c(F)cc2Cl)nn1
Compound 0.0316 µM
  viability, T/C: 97% and 105%
Compound 0.1 µM
  viability, T/C: 94.9% and 95.8%
Compound 0.316 µM
  viability, T/C: 103% and 96.8%
Compound 1 µM
  viability, T/C: 105% and 114%
Compound 3.16 µM
  viability, T/C: 104% and 102%
Compound 10 µM
  viability, T/C: 82.6% and 77.8%
Curve of compound
  IC50: > 10000 nM
